Data reported in PMC3389297 (Bioorganic & medicinal chemistry, 2012).
Entries after “also recorded” stand apart in the source; their conditions may differ.

Legend:
Type in all cases: biochemical
PTP-β = PTP-β (Homo sapiens, UniProt P23467); assay: Colorimetric PTP-β assay using p-NPP as substrate; conditions: 5 µM compound; 1 mM p-NPP as substrate
Cdc25a = target: T1, Cdc25a (Homo sapiens, UniProt P30304); assay: OMFP phosphatase assay, Cdc25a; conditions: for Mode of inhibition of Cdc25a: Michaelis-Menten kinetics, varying inhibitor concentrations; for Reversibility of inhibition of Cdc25a: dilution method: pre-incubation at 4 times IC50, 10-fold dilution
T1 sequence (P30304 376-482 limits assumed): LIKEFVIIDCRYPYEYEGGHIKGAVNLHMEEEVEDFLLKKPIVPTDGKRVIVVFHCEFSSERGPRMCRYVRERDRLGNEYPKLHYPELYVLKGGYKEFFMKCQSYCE

Cdc25c = target: T2, Cdc25c (Homo sapiens, UniProt P30307); assay: OMFP phosphatase assay, Cdc25c
T2 sequence (P30307 321-428 limits assumed): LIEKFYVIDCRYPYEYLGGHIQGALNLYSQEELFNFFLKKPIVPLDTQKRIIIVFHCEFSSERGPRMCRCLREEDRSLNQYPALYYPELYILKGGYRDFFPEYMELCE

Cdc25b = target: T3, Cdc25b (Homo sapiens, UniProt P30305); assay: OMFP phosphatase assay, Cdc25b; conditions: for Mode of inhibition of Cdc25b: Michaelis-Menten kinetics, varying inhibitor concentrations; for Reversibility of inhibition of Cdc25b: dilution method: pre-incubation at 4 times IC50, 10-fold dilution
T3 sequence (P30305 431-538 limits assumed): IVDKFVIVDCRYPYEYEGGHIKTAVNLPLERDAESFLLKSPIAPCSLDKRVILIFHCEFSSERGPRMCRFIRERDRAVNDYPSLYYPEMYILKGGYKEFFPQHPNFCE

Sequence of PTP-β (P23467 1703-1963 limits assumed): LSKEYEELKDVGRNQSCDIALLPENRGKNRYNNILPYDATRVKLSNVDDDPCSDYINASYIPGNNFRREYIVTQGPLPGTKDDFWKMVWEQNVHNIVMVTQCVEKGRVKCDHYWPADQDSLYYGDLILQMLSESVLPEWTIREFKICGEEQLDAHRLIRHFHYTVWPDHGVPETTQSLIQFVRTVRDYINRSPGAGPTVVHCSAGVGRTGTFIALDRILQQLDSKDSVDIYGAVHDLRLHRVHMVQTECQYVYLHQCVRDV

Row | SMILES | Inhibition of PTP-β (PTP-β) | Mode of inhibition of Cdc25a (Cdc25a; OMFP) | Reversibility of inhibition of Cdc25a (Cdc25a) | Effect on activity of Cdc25c (Cdc25c; 10 µM compound) | Mode of inhibition of Cdc25b (Cdc25b; OMFP) | Reversibility of inhibition of Cdc25b (Cdc25b) | Potency relative to 13778 for Cdc25a (fold lower) (Cdc25a; OMFP) | Effect on activity of Cdc25c (Cdc25c; at the concentrations tested) | Potency relative to 13778 for Cdc25b (fold lower) (Cdc25b; OMFP)
1 | [O]=[Sb]([OH])([OH])[c]1ccccc1 [Compound 13744] | does not show any inhibitory effect; also recorded: No inhibition |  |  |  |  |  |  |  | 
2 | O=C(O)/C=C/c1ccc[c]([Sb](=[O])([OH])[OH])c1 [Compound 13778, (E)-3-(3-stibonophenyl)acrylic acid] | almost completely inhibiting phosphatase activity | partial mixed-type mode of inhibition | reversible | not substantially affected | partial mixed-type mode of inhibition | reversible |  |  | 
3 | O=C(O)CCc1ccc[c]([Sb](=[O])([OH])[OH])c1 [Compound P6949, 3-(3-stibonophenyl)propanoic acid] | almost completely inhibiting phosphatase activity | partial mixed-type mode of inhibition | reversible |  | partial mixed-type mode of inhibition | reversible | ~ 30 fold | not affected | ~ 10 fold
